Common to all, as to test: DTP human tumour cell line panel, 48 h
Assay [1] concerns MDA-N.
Assay [2] has as its system COLO 205.
The subject of assay [3] is HCC 2998.
The subject of assay [4] is UACC-62.
Assay [5] relates to SK-MEL-5.
The subject of assay [6] is 786-0.
Assay [7] relates to SW-620.
The test system of assay [8] is SF-295.
In assay [9] the test system is MDA-MB-231.
The subject of assay [10] is SK-MEL-28.
Assay [11] relates to UO-31.
Assay [12] relates to HCT-15.
The subject of assay [13] is DU-145.
Assay [14] has as its system IGROV-1.
For assay [15], the system named is MOLT-4.
Assay [16] deals with MCF7.
Assay [17] deals with RXF 393.
Assay [18] has as its system ACHN.
Assay [19] deals with SK-MEL-2.

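Results reflect a 48-hour exposure of cells in 96-well plates to compound at five concentrations. At the GI50, growth is halved.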 Activity calls are given as the source filed them. Rule as the data show it: active = GI50 up to about 1.1 µM and inactive = higher.

On to `SC[C@@H]1COC[C@H](CS)S1`, for which the GI50 in assay [1], in assay [2], in assay [3], in assay [4], in [5] and in [6] was > 100 µM (inactive) in each case. The GI50 in assay [7] is > 100 µM (inactive); in [8] it was > 100 µM (inactive); in assay [9] it was > 100 µM (inactive); in assay [10], > 100 µM (inactive); in assay [11] it was > 100 µM (inactive); in assay [12] it was over 100 µM. Moreover, the GI50 in assay [13], in assay [14], in [15] and in assay [16] was > 100 µM (inactive) in each case.

`O=C(O)c1cc2ccc3ccccc3c2oc1=O`: the GI50 in assay [17], in assay [1], in [2], in [3], in [4] and in assay [5] was > 100 µM (inactive) each time. In addition, the GI50 in assay [6], in assay [7], in assay [8], in assay [18], in [19] and in assay [9] was > 100 µM (inactive) each time. Also, the GI50 in [10] was > 100 µM (inactive); in assay [11] it was > 100 µM (inactive); in [12], over 100 µM; in assay [14], > 100 µM (inactive); in [15], > 100 µM (inactive); in assay [16] it was > 100 µM (inactive).

For the compound `CC(N)(CC(O)(C(F)(F)Cl)C(F)(F)Cl)C(=O)O` (stereo unspecified), the GI50 in assay [1], in assay [2], in assay [3], in [4], in [5] and in assay [6] was > 10 µM (inactive) each time. In addition, the GI50 in [7], in assay [8], in [18], in assay [9], in [10] and in [11] was > 10 µM (inactive) in each case. The GI50 in assay [12] was over 10 µM; in [13], > 10 µM (inactive); in [14], > 10 µM (inactive); in [15], > 10 µM (inactive); in assay [16], > 10 µM (inactive).

Take `COC(=O)C1=C(C(=O)OC)C(C(=O)c2ccc(Br)cc2)N2N=C(c3ccc(Cl)cc3)C=CC12` (stereo unspecified): the GI50 was > 100 µM (inactive) in assay [1]; > 100 µM (inactive) in assay [2]; > 100 µM (inactive) in [3]; 25.2 µM (inactive) in assay [4]; > 100 µM (inactive) in assay [5]; > 100 µM (inactive) in assay [6]. The GI50 was > 100 µM (inactive) in [7]; 67 µM (inactive) in assay [8]; > 100 µM (inactive) in assay [18]; > 100 µM (inactive) in assay [19]; > 100 µM (inactive) in assay [9]; > 100 µM (inactive) in [10]. Besides, the GI50 is > 100 µM (inactive) in assay [11]; over 100 µM in assay [12]; > 100 µM (inactive) in assay [13]; > 100 µM (inactive) in assay [14]; > 100 µM (inactive) in assay [15]; 82.8 µM (inactive) in assay [16].

Take `COc1ccc2c(c1)CCC/C2=N\NS(=O)(=O)c1c(C)cc(C)cc1C`: the GI50 was 28.6 µM (inactive) in assay [1]; 23.9 µM (inactive) in assay [2]; 41.5 µM (inactive) in [3]; 18.7 µM (inactive) in assay [4]; 17.3 µM (inactive) in assay [5]; 19.1 µM (inactive) in [6]. The GI50 in [7] was 28.1 µM (inactive); in [8], 34.4 µM (inactive); in [18], 27.7 µM (inactive); in assay [19], 34.3 µM (inactive); in [9] it was 30.8 µM (inactive); in assay [10] it was 35.1 µM (inactive). Besides, the GI50 is 28.9 µM (inactive) in assay [11]; 30.3 µM in assay [12]; 25.6 µM (inactive) in assay [13]; 19 µM (inactive) in assay [14]; 25.5 µM (inactive) in assay [15]; 37.8 µM (inactive) in assay [16].

On to `N#Cc1c(-c2ccc(Cl)cc2)c2c([nH]c1=O)-c1ccccc1SC2`, for which the GI50 in assay [17] was 25.2 µM (inactive); in assay [1] it was 77.6 µM (inactive); in [2], 22.3 µM (inactive); in [4], 32.7 µM (inactive); in [5] it was > 100 µM (inactive); in assay [6], 39.8 µM (inactive). Further, the GI50 is > 100 µM (inactive) in [7]; 28 µM (inactive) in assay [8]; 52.6 µM (inactive) in assay [19]; 29.1 µM (inactive) in [9]; > 100 µM (inactive) in assay [10]; 56.9 µM (inactive) in [11]. For the same compound, the GI50 in assay [12] is 70.6 µM; in assay [13] it was > 100 µM (inactive); in [14] it was 56.9 µM (inactive); in [15], 27.4 µM (inactive); in assay [16] it was 27.5 µM (inactive).

Take `C=C1CC[C@H]2C(=O)OC(c3ccoc3)C[C@]2(C)C/C=C\C=C/1C(=O)OC` (stereo partly specified): the GI50 in [17], in [1], in [2], in assay [3], in [4] and in assay [5] was > 25 µM (inactive) each time. Moreover, the GI50 in assay [6], in assay [7], in assay [8], in assay [18], in assay [19] and in assay [9] was > 25 µM (inactive) in each case. Moreover, the GI50 in [10] is > 25 µM (inactive); in assay [11], 13.6 µM (inactive); in [12], over 25 µM; in assay [14], > 25 µM (inactive); in assay [16], > 25 µM (inactive).

Regarding `C[C@H](c1ccccc1)N1C(=O)[C@@H](O)[C@H]1[C@H](CO)OCc1ccccc1`, the GI50 in [1], in [2], in assay [4], in assay [5], in assay [6] and in assay [7] was > 100 µM (inactive) in each case. In addition, the GI50 in assay [8] was 95.3 µM (inactive); in assay [18] it was > 100 µM (inactive); in assay [19], > 100 µM (inactive); in [9], > 100 µM (inactive); in [10] it was > 100 µM (inactive); in assay [11], > 100 µM (inactive). Further, the GI50 in [12] was over 100 µM; in [13], > 100 µM (inactive); in assay [14] it was > 100 µM (inactive); in assay [15], > 100 µM (inactive); in [16], > 100 µM (inactive).

Consider `NC1=Nc2cc(Cl)ccc2Sc2nc3ccccc3n21`, for which the GI50 was 3.44 µM (inactive) in [1]; 2.5 µM (inactive) in [2]; > 100 µM (inactive) in [3]; 4.66 µM (inactive) in [4]; 4.92 µM (inactive) in assay [5]; 14.2 µM (inactive) in assay [6]. For the same compound, the GI50 in assay [7] is > 86.3 µM (inactive); in assay [8], > 95.7 µM (inactive); in [18], > 100 µM (inactive); in assay [19], 20 µM (inactive); in assay [9], > 20.7 µM (inactive); in assay [10] it was > 100 µM (inactive). Also, the GI50 is > 100 µM (inactive) in assay [11]; over 100 µM in [12]; > 100 µM (inactive) in assay [13]; 4.7 µM (inactive) in [14]; 2.61 µM (inactive) in assay [15]; > 59.2 µM (inactive) in assay [16].

On to `O=C1C(=c2cc3c(c4ccccc24)=NC24CCCCC2C(c2ccccc2)C=C(c2ccccc2)N34)C(=O)c2ccccc21` (stereo unspecified), for which the GI50 in [17] was 18.5 µM (inactive); in assay [1], 36.9 µM (inactive); in assay [2] it was 33 µM (inactive); in assay [5] it was 26.4 µM (inactive); in assay [6], 48.6 µM (inactive); in assay [7], 37.7 µM (inactive). The GI50 in assay [8] was > 100 µM (inactive); in assay [18] it was 54.3 µM (inactive); in [19], 42.5 µM (inactive); in assay [9], 15.4 µM (inactive); in assay [10], 47.2 µM (inactive); in assay [11], 22.9 µM (inactive). The GI50 was 57.3 µM (inactive) in assay [13], 3.08 µM (inactive) in assay [14], 16.6 µM (inactive) in assay [15] and 14.4 µM (inactive) in [16].

For the compound `Cc1cccc2c1Oc1ccccc1C2NC(=O)c1ccc([N+](=O)[O-])cc1` (stereo unspecified), the GI50 in assay [17] is 23.7 µM (inactive); in assay [1], > 100 µM (inactive); in assay [4], > 100 µM (inactive); in assay [5] it was > 100 µM (inactive); in assay [6], > 100 µM (inactive); in assay [7] it was > 100 µM (inactive). Also, the GI50 was > 100 µM (inactive) in assay [8]; > 100 µM (inactive) in [18]; > 100 µM (inactive) in assay [19]; 66.1 µM (inactive) in assay [9]; > 100 µM (inactive) in [10]; > 100 µM (inactive) in assay [11]. The GI50 in assay [12] is over 100 µM; in assay [13] it was 21 µM (inactive); in assay [14] it was > 100 µM (inactive); in assay [15], > 100 µM (inactive).

Turning to `COc1cc(S(=O)(=O)Nc2ccc(-c3csc(N4C(=O)CSC4c4ccccc4)n3)cc2)ccc1Cl` (stereo unspecified), the GI50 in [17] was 29.2 µM (inactive); in assay [1], 39.9 µM (inactive); in [2] it was 35.6 µM (inactive); in assay [3], 20.4 µM (inactive); in assay [4] it was 13.2 µM (inactive); in assay [5] it was 92.9 µM (inactive). Moreover, the GI50 in assay [6] was 76.2 µM (inactive); in [7] it was 42.4 µM (inactive); in assay [8], 96.6 µM (inactive); in assay [18] it was 15.2 µM (inactive); in assay [19] it was 37.2 µM (inactive); in assay [10] it was 22.9 µM (inactive). The GI50 in [11] was 79.4 µM (inactive); in assay [12] it was over 100 µM; in assay [13], > 100 µM (inactive); in [14], 51.4 µM (inactive); in assay [15], 25.6 µM (inactive); in [16], 22.6 µM (inactive).

These data come from ChEMBL document CHEMBL1201862, “PubChem BioAssay data set” (2004).
